{"source": "paper PMC12686126", "about": "“LL‐37 Inhibits TMPRSS2‐Mediated S2' Site Cleavage and SARS‐CoV‐2 Infection but Not Omicron Variants” (Cell Proliferation, 2025)", "key": {"[1]": {"system": "spike with N764K mutation", "type": "cell-based, SARS‐CoV‐2"}, "[2]": {"system": "SARS‐CoV‐2 spike S2 subunit", "type": "cell-based"}, "[3]": {"system": "S2 subunit with D796Y mutation", "type": "binding, SARS‐CoV‐2"}, "[4]": {"system": "S2 subunit with N969K mutation", "type": "binding, SARS‐CoV‐2"}, "[5]": {"system": "SARS‐CoV‐2^N764K spike pseudovirus", "type": "cell-based"}, "SARS‐CoV‐2 spike": {"system": "SARS‐CoV‐2 spike", "type": "cell-based"}, "[6]": {"system": "spike with N969K mutation", "type": "cell-based, SARS‐CoV‐2"}, "[7]": {"system": "SARS‐CoV‐2 spike pseudovirus", "type": "cell-based"}, "[8]": {"system": "spike with N764K mutation", "type": "cell-based, SARS‐CoV‐2", "remark": "listed apart in the source"}, "[9]": {"system": "spike with D796Y mutation", "type": "cell-based, SARS‐CoV‐2"}}}
{"sequence": "LLGDFFRKSKEKIGKEFKRIVQRIKDFLRNLVPRTES [LL‐37]", "values": [{"measurement": "generation of S2' fragment", "setting": "[1]", "result": "did not significantly reduce"}, {"measurement": "effect on polybasic cleavage site (S1/S2 boundary)", "setting": "[2]", "result": "excluded the effect of LL‐37 on the polybasic cleavage site"}, {"measurement": "binding of S2 subunit to immobilised LL‐37", "setting": "[3]", "result": "no difference or even enhanced binding"}, {"measurement": "binding of S2 subunit to immobilised LL‐37", "setting": "[4]", "result": "no difference or even enhanced binding"}, {"measurement": "reduction of RLU induced by SARS‐CoV‐2^N764K", "setting": "[5]", "result": "did not significantly reduce"}, {"measurement": "cell–cell fusion activity after LL‐37 pretreatment", "setting": "SARS‐CoV‐2 spike", "result": "significantly lower cell–cell fusion activity"}, {"measurement": "cell–cell fusion activity after LL‐37 pretreatment", "setting": "[6]", "result": "significantly lower cell–cell fusion activity"}, {"measurement": "inhibition of RLU only caused by overexpression of TMPRSS2", "setting": "[7]", "result": "about 70%"}, {"measurement": "inhibition of pseudovirus entry into 293T‐A2T2 cells", "setting": "[7]", "result": 52, "unit": "%"}, {"measurement": "cell–cell fusion activity after LL‐37 pretreatment", "setting": "[8]", "result": "not the spike‐expressing cells with N764K mutation"}, {"measurement": "cell–cell fusion activity after LL‐37 pretreatment", "setting": "[9]", "result": "significantly lower cell–cell fusion activity"}]}
